Measured values: publication PMC4760439, “Glicentin‐related pancreatic polypeptide inhibits glucose‐stimulated insulin secretion from the isolated pancreas of adult male rats” (Physiological Reports, 2015)
“Also recorded” adds a separate entry of the source. Positions of bridges follow the written chain, without caps; N, C: chain ends. No end group written: not given here.

Legend:
[1] = target: T1, human glucagon receptor (hGL‐R) (Homo sapiens, UniProt P47871); experiment: cAMP stimulation in transfected Cos 7 cells, hGL‐R; assay type: cell-based; conditions: preliminary experiment, hGL‐R with vector; data not shown
T1 construct: expressed in transfected cells; host or cells: Cos 7 cells
Method: Transfection of Cos 7 cells
Cos 7 cells were maintained and subcultured as previously described (Bailey and Hay 2006) and plated at a density of 15,000 cells per well into 96‐well plates 1 day prior to transfection. […] Cyclic AMP assays were performed 48 h after transfection (Bailey and Hay 2006). The human GRPP was obtained from Bachem (Bubendorf, Switzerland).
(§1) Cyclic AMP stimulation of transfected Cos 7 cells
(§2) Transfected cells were serum‐deprived in DMEM containing 1 mmol L^−1 IBMX and 0.1% (w/v) bovine serum albumin (BSA) for 30 min. […] Plates were incubated at 37°C for 10 min. […] Media were then aspirated from the wells and reactions terminated by addition of ice‐cold absolute ethanol. Ethanol was then evaporated to dryness and cell extracts re‐suspended in 45 μL cAMP assay buffer: cAMP concentrations were determined using ALPHA‐screen assay kits (Perkin Elmer, Massachusetts) as previously described (Gingell et al. 2010).
Maximum pancreatic first‐phase insulin secretion in the presence of hormone infusion was contrasted with corresponding control values by unpaired Welch's t‐tests for preplanned comparisons, to allow for unequal variance between groups. Linear mixed‐effects models were fitted by restricted maximum likelihood (LME‐REML) to data obtained from each indicated phase of isolated perfused–organs studies, using S‐PLUS version 8.2 (TIBCO, Spotfire). Calculated P‐values <0.05 are presented in the article and reflect the likelihood ratio between two models, the effect in question (treatment, time, or treatment:time) against the model without the effect in question. Insulin secreted from isolated islets was expressed as a percentage of insulin content and compared using one‐way ANOVA (GraphPad Prism version 6.0: GraphPad Software Inc., San Diego, CA). […]

hGL‐R with RAMP2 = experiment: cAMP stimulation in Cos 7 cells transfected with hGL‐R and RAMP2; assay type: cell-based, human; conditions: preliminary experiment; data not shown
Method: as §1, §2

isolated rat islets = experiment: Insulin secretion from isolated rat islets (static incubation); assay type: cell-based; conditions: hGRPP 1, 10, and 100 nmol L^−1, 1 h, 8 to 9 incubations of 10 islets/well, three experiments, ELISA
From the text: Maximum pancreatic first‐phase insulin secretion in the presence of hormone infusion was contrasted with corresponding control values by unpaired Welch's t‐tests for preplanned comparisons, to allow for unequal variance between groups. Linear mixed‐effects models were fitted by restricted maximum likelihood (LME‐REML) to data obtained from each indicated phase of isolated perfused–organs studies, using S‐PLUS version 8.2 (TIBCO, Spotfire). Calculated P‐values <0.05 are presented in the article and reflect the likelihood ratio between two models, the effect in question (treatment, time, or treatment:time) against the model without the effect in question. Insulin secreted from isolated islets was expressed as a percentage of insulin content and compared using one‐way ANOVA (GraphPad Prism version 6.0: GraphPad Software Inc., San Diego, CA). Cyclic AMP data have been normalized to the response obtained to forskolin and fitted to obtain concentration–response curves using a three‐parameter logistic equation (GraphPad Prism version 6.0: GraphPad Software Inc., San Diego, CA): pEC50 values were obtained from the concentration–response curves and compared using one‐way ANOVA. All data are presented as mean ± SEM of three to four independent experiments.

canine pancreas = conditions: local circulation preparation of the canine pancreas; ref Ohneda and Ohneda 1988; cited from earlier work
From the text: However, we know of only one study reporting the effects of GRPP on GSIS. […] The precise experimental conditions such as amount of glucose and experimental model used may have influences on the different outcomes; however, the reason for the opposing actions of GRPP between these ...

pancreatic β‐cell = conditions: ref Metz et al. 1983; Zielmann et al. 1985; Holst et al. 1987; Shima et al. 1988; Goke et al. 1989; Ishizuka et al. 1991; Jia et al. 1995; Vahl et al. 2003; cited from earlier work
[2] = system: plasma insulin and glucagon; conditions: infusion in humans; ref Skamene and Patel 1984; cited from earlier work
From the text: (§3) GRPP and GRPP‐LP may inhibit insulin secretion indirectly, perhaps by influencing other islet‐derived hormones known to modulate hormone secretion from the β‐cell.

[3] = system: isolated‐perfused rat pancreas, perifused rat islets, and cultured islets; conditions: ref Norfleet et al. 1975, Fujimoto 1981, Bolaffi et al. 1990; cited from earlier work
From the text: as §3

T1 sequence (P47871 26-477): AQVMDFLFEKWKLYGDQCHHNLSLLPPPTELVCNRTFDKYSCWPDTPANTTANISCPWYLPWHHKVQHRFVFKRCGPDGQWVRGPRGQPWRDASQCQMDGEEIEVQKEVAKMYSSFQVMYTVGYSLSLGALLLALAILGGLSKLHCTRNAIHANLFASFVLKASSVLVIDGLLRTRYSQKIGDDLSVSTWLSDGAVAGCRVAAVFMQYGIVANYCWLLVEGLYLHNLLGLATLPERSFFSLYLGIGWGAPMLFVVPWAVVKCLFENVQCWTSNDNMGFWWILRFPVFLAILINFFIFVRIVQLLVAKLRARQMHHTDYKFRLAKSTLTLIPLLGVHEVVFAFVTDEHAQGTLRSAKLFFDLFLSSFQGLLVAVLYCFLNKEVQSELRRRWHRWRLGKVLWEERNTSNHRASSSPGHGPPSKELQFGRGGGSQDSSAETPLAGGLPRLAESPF

RSLQDTEEKSRSFSASQADPLSDPDQMNED [hGRPP, human glicentin‐related pancreatic polypeptide, The human GRPP was obtained from Bachem]
Stimulation of cAMP production at hGL‐R alone [1]: did not stimulate cAMP production at hGL‐R alone | Stimulation of cAMP production at hGL‐R in the presence of RAMP2 (hGL‐R with RAMP2): did not stimulate cAMP production at hGL‐R alone or in the presence of RAMP2 | Basal insulin secretion from islets (vs control) (isolated rat islets; 2.8 mmol L^−1 glucose): did not affect insulin secretion; also recorded: did not affect basal or stimulated insulin compared with untreated islets | Glucose‐stimulated insulin secretion from islets (vs control) (isolated rat islets; 16.7 mmol L^−1 glucose): did not affect insulin secretion; also recorded: did not affect basal or stimulated insulin compared with untreated islets | Plasma insulin and glucagon, canine pancreas (canine pancreas): slight increases in plasma insulin and decreases in plasma glucagon

glucagon‐like peptide 1 (HAEGTFTSDVSSYLEGQAAKEFIAWLVKGR; ends and bridges not checked; UniProt P01275 98-127, looked up) [GLP‐1, incretin; literature statement, form not specified]
GSIS (action on pancreatic β‐cell) (pancreatic β‐cell): enhance glucose‐stimulated insulin secretion

somatostatin (AGCKNFFWKTFTSC; disulfide 3-14; ends not checked; UniProt P61278 103-116, looked up) [SST]
Arginine‐stimulated plasma insulin and glucagon levels [2]: decreased arginine‐stimulated plasma insulin and glucagon levels in a dose‐dependent manner | GSIS and arginine‐stimulated glucagon secretion [3]: inhibits GSIS as well as arginine‐stimulated glucagon secretion
